{
  "source": "patent US20260053811A1",
  "about": "“METHODS OF TREATING HYPERTENSION IN OBESE SUBJECTS” (Mineralys Therapeutics, Inc., priority 2022, published 2026)",
  "tested_on": "hypertensive subjects",
  "assay": "Seated automated office blood pressure (AOBP) in randomized, placebo-controlled, dose-ranging study",
  "type": "in vivo, human",
  "parameters": "Difference from placebo in change in blood pressure: unit not given here",
  "conditions": "for Modelled (ANCOVA) LSM (SEM) change from baseline, seated AOBP SBP / LSM Δ with PRA Baseline <1 ng/mL/h, seated AOBP SBP (ANCOVA): 100 mg QD Parts 1 & 2",
  "method": "A randomized, double-blinded, placebo-controlled, dose-ranging, multicenter study was conducted to evaluate the effect of orally administered Compound A HBr on blood pressure for the treatment of hypertension in male and female subjects ≥18 years of age.\nThe study consists of two parts. For enrollment into Part 1 of the study, a subject's value of plasma renin activity (PRA) must be ≤1 ng/mL/h based on morning measurement. If the value of PRA >1 ng/mL/h based on morning measurement, then subjects may be eligible to enter Part 2 of the study.\nFor Part 1, 163 enrolled subjects ≥18 years of age were randomized into 6 equal treatment groups (1:1:1:1:1:1) to 12.5 mg BID, 25 mg BID, 12.5 mg QD, 50 mg QD, 100 mg QD, or placebo. After a review of interim clinical data, the 2 lowest dose levels (12.5 mg QD and 12.5 mg BID) were stopped for future randomization due to a lack of consistent meaningful reduction of blood pressure, but the patients randomized to that point remained in the study through completion. Thus, after the review of interim clinical data, subjects were randomized into 4 equal treatment groups (1:1:1:1) to 25 mg BID, 50 mg QD, 100 mg QD, or placebo.\nFor Part 2, 36 enrolled subjects ≥18 years of age were randomized (5:1) to either 100 mg QD Compound A HBr or placebo such that the Compound A HBr treatment group consisted of approximately 30 subjects and the placebo treatment group will consist of approximately 6 subjects.\nSubjects orally administered the assigned study drug (Compound A HBr or placebo) according to the assigned dosing regimen for 8 weeks beginning on Study Day 1. All subjects in Part 1 (regardless of dosing group) received BID dosing to preserve the integrity of the blind; active drug is administered as the morning dose for all QD dose groups. Subjects returned to the research facility or were seen by the clinical investigator or approved home health care professional at the end of Study Weeks 1, 2, 3, 4, 5, 6, 7, and 8 (±2 days) for protocol-defined efficacy and safety assessments and procedures, assessment of adverse events (AEs), and confirmation of compliance with study drug usage. Subjects also completed a telephone visit and blood pressure (BP) check at home approximately 3 days post last dose of study drug. Subjects attended up to 14 full clinic visits, including a pre-Screening visit, a Screening/start of Placebo Run-in visit, a second visit during Placebo Run-in, a clinic visit to initiate the ABPM procedure, a Randomization visit, 8 weekly visits during double-blind treatment, and an end-of-study visit scheduled 4 weeks after the last study treatment for final efficacy and safety assessments.\nAn automated oscillometric sphygmomanometer device was used to measure the subjects' systolic and diastolic blood pressure in office after approximately 5 minutes of rest in the seated position.\nThe primary endpoint is the change in office-measured (mean of last 2 of 5 unattended measurements using an automated oscillometric sphygmomanometer device after approximately 5 minutes of rest in the seated position) systolic blood pressure (SBP) from baseline to the end of Study Week 8.\nSecondary endpoints of this study were: • (a) Change in 24-hour ambulatory blood pressure monitoring (ABPM) parameters (systolic and diastolic) from baseline to the end of Study Week 7. • (b) Change in office-measured SBP from baseline to the end of Study Weeks 1, 2, 3, 4, 5, 6, and 7. • (c) Change in office-measured diastolic blood pressure (DBP) from baseline to the end of Study Weeks 1, 2, 3, 4, 5, 6, 7, and 8. • (d) Proportion of subjects who achieve office-measured BP of ≤130/80 mm Hg by the end of Study Week 8.",
  "key": {"[1]": {"conditions": "100 mg QD Part 2, Week 8, Parts 1 & 2 model, FAS"}, "[2]": {"conditions": "PRA Baseline >=1 ng/mL/h, Week 4, FAS"}, "[3]": {"conditions": "PRA Baseline >=1 ng/mL/h, Week 8, FAS"}},
  "note": "Marks after values point to notes of the source that are not given here.",
  "data": [
    {"molecule": "CC(=O)N[C@H]1CC[C@H](NC(=O)CN2CCN(c3nncc(-c4ccc(C)cc4)n3)CC2)CC1", "note": "[Compound A HBr]", "values": [
      {"measurement": "LSM Δ with Placebo, change from baseline in seated AOBP SBP (MMRM)", "setting": "100 mg QD Part 2 (vs 100 mg QD Part 1 per text), Week 8, FAS", "result": 0.74, "unit": "mmHg"},
      {"measurement": "LSM Δ with 100 mg QD Part 1, seated AOBP DBP (MMRM)", "setting": "100 mg QD Part 2, Week 4, FAS", "result": "−0.43", "unit": "mmHg"},
      {"measurement": "Modelled (MMRM) LSM (SEM) change from baseline, seated AOBP DBP", "setting": "100 mg QD Part 2, Week 4, Parts 1 & 2 model, FAS", "result": "−6.30 (1.44) mmHg"},
      {"measurement": "Modelled (MMRM) LSM (SEM) change from baseline, seated AOBP DBP", "setting": "[1]", "result": "−5.55 (1.42) mmHg"},
      {"measurement": "Modelled (MMRM) LSM (SEM) change from baseline, seated AOBP SBP", "setting": "[1]", "result": "−11.35 (2.48) mmHg"},
      {"measurement": "Modelled (ANCOVA) LSM (SEM) change from baseline, seated AOBP SBP", "setting": "PRA Baseline <1 ng/mL/h, Week 4, FAS", "result": "−15.42 (3.12) mmHg"},
      {"measurement": "Modelled (ANCOVA) LSM (SEM) change from baseline, seated AOBP SBP", "setting": "PRA Baseline <1 ng/mL/h, Week 8, FAS", "result": "−11.27 (3.13) mmHg"},
      {"measurement": "LSM Δ with PRA Baseline <1 ng/mL/h, seated AOBP SBP (ANCOVA)", "setting": "[2]", "result": 0.18, "unit": "mmHg"},
      {"measurement": "Modelled (ANCOVA) LSM (SEM) change from baseline, seated AOBP SBP", "setting": "[2]", "result": "−15.24 (2.75) mmHg"},
      {"measurement": "LSM Δ with PRA Baseline <1 ng/mL/h, seated AOBP SBP (ANCOVA)", "setting": "[3]", "result": "−2.07", "unit": "mmHg"},
      {"measurement": "Modelled (ANCOVA) LSM (SEM) change from baseline, seated AOBP SBP", "setting": "[3]", "result": "−13.34 (2.52) mmHg"},
      {"measurement": "Difference from placebo in change in blood pressure", "setting": "100 mg QD, BMI 25-30", "result": "−2.6"},
      {"measurement": "Difference from placebo in change in blood pressure", "setting": "100 mg QD, BMI >30", "result": "−13.2*"},
      {"measurement": "Mean placebo-adjusted reduction in AOBP SBP", "setting": "100 mg QD, Part 1, Week 8", "result": 7.81, "unit": "mmHg"},
      {"measurement": "Proportion of subjects with AOBP ≤130/80 mmHg", "setting": "100 mg QD, Part 1, Week 8", "result": 30, "unit": "%"},
      {"measurement": "Proportion of subjects with AOBP ≤130/80 mmHg", "setting": "100 mg QD, Part 2, Week 8", "result": 54.8, "unit": "%"},
      {"measurement": "Mean reduction in AOBP systolic BP, placebo-corrected, Full-analysis set", "setting": "100 mg QD, Part-1 and Part-2 (interim) combined, N=58 active", "result": "−9.9", "unit": "mmHg"},
      {"measurement": "Difference from placebo in change in blood pressure", "setting": "100 mg QD, Thiazide No", "result": "−3.3"},
      {"measurement": "Difference from placebo in change in blood pressure", "setting": "100 mg QD, Thiazide Yes", "result": "−11.4*"},
      {"measurement": "Seated AOBP DBP change from baseline (CFB), Mean (SD)", "setting": "100 mg QD, Week 1, Part 1, FAS", "result": "0.98 (8.29) mmHg"},
      {"measurement": "Seated AOBP DBP, Mean (SD)", "setting": "100 mg QD, Week 1, Part 1, FAS", "result": "79.70 (11.07) mmHg"},
      {"measurement": "Seated AOBP SBP change from baseline (CFB), Mean (SD)", "setting": "100 mg QD, Week 1, Part 1, FAS", "result": "0.06 (12.66) mmHg"},
      {"measurement": "Seated AOBP SBP, Mean (SD)", "setting": "100 mg QD, Week 1, Part 1, FAS", "result": "144.41 (14.54) mmHg"},
      {"measurement": "Seated AOBP DBP change from baseline (CFB), Mean", "setting": "100 mg QD, Week 1, Part 2, FAS", "result": "−5.85", "unit": "mmHg"},
      {"measurement": "Seated AOBP DBP, Mean", "setting": "100 mg QD, Week 1, Part 2, FAS", "result": 72.19, "unit": "mmHg"},
      {"measurement": "Seated AOBP SBP change from baseline (CFB), Mean", "setting": "100 mg QD, Week 1, Part 2, FAS", "result": "−11.35", "unit": "mmHg"},
      {"measurement": "Seated AOBP SBP, Mean", "setting": "100 mg QD, Week 1, Part 2, FAS", "result": 129.00, "unit": "mmHg"},
      {"measurement": "Seated AOBP DBP change from baseline (CFB), Mean (SD)", "setting": "100 mg QD, Week 2, Part 1, FAS", "result": "−2.14 (9.60) mmHg"},
      {"measurement": "Seated AOBP DBP, Mean (SD)", "setting": "100 mg QD, Week 2, Part 1, FAS", "result": "76.36 (11.90) mmHg"},
      {"measurement": "Seated AOBP SBP change from baseline (CFB), Mean (SD)", "setting": "100 mg QD, Week 2, Part 1, FAS", "result": "−5.64 (16.38) mmHg"},
      {"measurement": "Seated AOBP SBP, Mean (SD)", "setting": "100 mg QD, Week 2, Part 1, FAS", "result": "139.04 (18.22) mmHg"},
      {"measurement": "Seated AOBP DBP change from baseline (CFB), Mean", "setting": "100 mg QD, Week 2, Part 2, FAS", "result": "−5.13", "unit": "mmHg"},
      {"measurement": "Seated AOBP DBP, Mean", "setting": "100 mg QD, Week 2, Part 2, FAS", "result": 73.10, "unit": "mmHg"},
      {"measurement": "Seated AOBP SBP change from baseline (CFB), Mean", "setting": "100 mg QD, Week 2, Part 2, FAS", "result": "−8.80", "unit": "mmHg"},
      {"measurement": "Seated AOBP SBP, Mean", "setting": "100 mg QD, Week 2, Part 2, FAS", "result": 131.33, "unit": "mmHg"},
      {"measurement": "Seated AOBP DBP change from baseline (CFB), Mean (SD)", "setting": "100 mg QD, Week 3, Part 1, FAS", "result": "−5.48 (9.36) mmHg"},
      {"measurement": "Seated AOBP DBP, Mean (SD)", "setting": "100 mg QD, Week 3, Part 1, FAS", "result": "72.84 (10.83) mmHg"},
      {"measurement": "Seated AOBP SBP change from baseline (CFB), Mean (SD)", "setting": "100 mg QD, Week 3, Part 1, FAS", "result": "−9.20 (11.37) mmHg"},
      {"measurement": "Seated AOBP SBP, Mean (SD)", "setting": "100 mg QD, Week 3, Part 1, FAS", "result": "136.56 (14.68) mmHg"},
      {"measurement": "Seated AOBP DBP change from baseline (CFB), Mean", "setting": "100 mg QD, Week 3, Part 2, FAS", "result": "−4.76", "unit": "mmHg"},
      {"measurement": "Seated AOBP DBP, Mean", "setting": "100 mg QD, Week 3, Part 2, FAS", "result": 73.72, "unit": "mmHg"},
      {"measurement": "Seated AOBP SBP change from baseline (CFB), Mean", "setting": "100 mg QD, Week 3, Part 2, FAS", "result": "−8.76", "unit": "mmHg"},
      {"measurement": "Seated AOBP SBP, Mean", "setting": "100 mg QD, Week 3, Part 2, FAS", "result": 131.52, "unit": "mmHg"},
      {"measurement": "LSM Δ with Placebo, seated AOBP DBP (MMRM)", "setting": "100 mg QD, Week 4, Part 1, FAS", "result": "−6.42", "unit": "mmHg"},
      {"measurement": "Modelled (MMRM) LSM (SEM) change from baseline, seated AOBP DBP", "setting": "100 mg QD, Week 4, Part 1, FAS", "result": "−6.96 (1.48) mmHg"}
    ]}
  ]
}
